According to PubChem BioAssay AID192 (DTP/NCI, 2004):
Values joined by “and” are separate entries in the source; they are usually repeats but may differ in a detail not shown here. Equal entries are not always repeated. Inconclusive results and toxic doses are left out. The calls were made as follows: active = survival T/C of 150% or more; inactive = T/C below 125% in these data.

Test system: BDF1 mice, B16 melanoma ip, median survival T/C
Experiment: NCI In Vivo Anticancer Drug Screen. Data for tumor model B16 Melanoma (intraperitoneal) in B6D2F1 (BDF1) mice
Settings: endpoint: median survival time, higher = longer survival
In short: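 Survival or tumor size is measured after treatment of tumor-bearing mice and normalised to the vehicle-treated control group.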

[1] = dose: 50.0 mg/kg/injection, schedule: Q01DX009 (ip), vehicle: saline
[2] = dose: 100.0 mg/kg/injection, schedule: Q01DX009 (ip), vehicle: saline
[3] = dose: 200.0 mg/kg/injection, schedule: Q01DX009 (ip), vehicle: saline
[4] = dose: 6.25 mg/kg/injection, schedule: Q01DX009 (ip), vehicle: saline with Tween-80
[5] = dose: 12.5 mg/kg/injection, schedule: Q01DX009 (ip), vehicle: saline with Tween-80
[6] = dose: 50.0 mg/kg/injection, schedule: Q01DX009 (ip), vehicle: saline with Tween-80
[7] = dose: 100.0 mg/kg/injection, schedule: Q01DX009 (ip), vehicle: saline with Tween-80
[8] = dose: 2.0 mg/kg/injection, schedule: Q01DX009 (ip), vehicle: saline with Tween-80
[9] = dose: 200.0 mg/kg/injection, schedule: Q01DX009 (ip), vehicle: saline with Tween-80
[10] = dose: 400.0 mg/kg/injection, schedule: Q01DX009 (ip), vehicle: saline with Tween-80
[11] = dose: 25.0 mg/kg/injection, schedule: Q01DX009 (ip), vehicle: saline

Measured: T/C

CCOC(=O)CCc1ccc(O)c(O)c1
inactive: dose: 37.5 mg/kg/injection, schedule: Q04DX003 (ip), vehicle: saline 102 % of control | [1] 113 % of control | dose: 75.0 mg/kg/injection, schedule: Q04DX003 (ip), vehicle: saline 102 % of control | [2] 110 % of control | dose: 150.0 mg/kg/injection, schedule: Q04DX003 (ip), vehicle: saline 97 % of control | [3] 97 % of control

Nc1nncs1
inactive: dose: 8.0 mg/kg/injection, schedule: Q01DX009 (ip), vehicle: saline 104 % of control | dose: 16.0 mg/kg/injection, schedule: Q01DX009 (ip), vehicle: other 111 % of control | dose: 16.0 mg/kg/injection, schedule: Q01DX009 (ip), vehicle: saline 99 % of control | dose: 32.0 mg/kg/injection, schedule: Q01DX009 (ip), vehicle: other 106 % of control | dose: 32.0 mg/kg/injection, schedule: Q01DX009 (ip), vehicle: saline 105 % of control | dose: 64.0 mg/kg/injection, schedule: Q01DX009 (ip), vehicle: other 104 % of control

CCCCOC(=O)/C=C(\Br)C(=O)OCCCC
inactive: [4] 99 % of control and 100 % of control | [5] 98 % of control and 104 % of control | dose: 25.0 mg/kg/injection, schedule: Q01DX009 (ip), vehicle: saline with Tween-80 86 % of control and 98 % of control | [6] 91 % of control | [7] 90 % of control

c1ccc(-c2nn(-c3ccccc3)[n+](-c3cccc4ccccc34)n2)cc1
inactive: [8] 97 % of control | dose: 4.0 mg/kg/injection, schedule: Q01DX009 (ip), vehicle: saline with Tween-80 93 % of control

Cl/C=C(\Cl)CCl
inactive: [4] 108 % of control | [5] 90 % of control

Cc1ccc(S(=O)(=O)c2ccc(Sc3cccc[n+]3[O-])c3nonc23)cc1
inactive: dose: 80.0 mg/kg/injection, schedule: Q04DX002 (ip), vehicle: saline with Tween-80 97 % of control | dose: 160.0 mg/kg/injection, schedule: Q04DX002 (ip), vehicle: saline with Tween-80 102 % of control | dose: 320.0 mg/kg/injection, schedule: Q04DX002 (ip), vehicle: saline with Tween-80 100 % of control

C=CC(C(=O)OCC)C(O)CCC (stereo unspecified)
inactive: dose: 50.0 mg/kg/injection, schedule: Q01DX009 (ip), vehicle: Klucel (hydroxypropylcellulose) (HPC) 121 % of control | dose: 100.0 mg/kg/injection, schedule: Q01DX009 (ip), vehicle: Klucel (hydroxypropylcellulose) (HPC) 100 % of control | dose: 200.0 mg/kg/injection, schedule: Q01DX009 (ip), vehicle: Klucel (hydroxypropylcellulose) (HPC) 101 % of control

C[C@H](CCC(=O)O)[C@H]1CC[C@H]2[C@@H]3[C@H](O)C[C@@H]4C[C@H](O)CC[C@]4(C)[C@H]3C[C@H](O)[C@]12C (tested in a mixture with another compound)
inactive: [1] 102 % of control | [2] 109 % of control | [3] 111 % of control

CCOC(=O)C(C(=O)COC)C(=O)OCC
inactive: dose: 25.0 mg/kg/injection, schedule: Q01DX009 (ip), vehicle: water 102 % of control | dose: 50.0 mg/kg/injection, schedule: Q01DX009 (ip), vehicle: water 98 % of control | dose: 100.0 mg/kg/injection, schedule: Q01DX009 (ip), vehicle: water 93 % of control

OCC1OCCO1
inactive: [7] 96 % of control | [9] 93 % of control

C[C@]12CC[C@H]3C(=CCc4cc(O)ccc43)[C@@H]1C/C(=N\O)C2=O
inactive: [7] 95 % of control | [9] 102 % of control | [10] 90 % of control

NCCCOc1ccc([N+](=O)[O-])cc1Cl
inactive: [11] 104 % of control | [1] 104 % of control | [2] 102 % of control

CCOC(=O)CCC(NC(=O)c1ccc(NCc2ccc3nc(N)nc(N)c3c2C)cc1)C(=O)OCC (stereo unspecified)
inactive: dose: 0.01 mg/kg/injection, schedule: Q01DX009 (ip), vehicle: saline + alcohol 108 % of control | dose: 0.02 mg/kg/injection, schedule: Q01DX009 (ip), vehicle: saline + alcohol 102 % of control | dose: 0.03 mg/kg/injection, schedule: Q01DX009 (ip), vehicle: saline + alcohol 105 % of control | dose: 0.06 mg/kg/injection, schedule: Q01DX009 (ip), vehicle: saline + alcohol 93 % of control | dose: 0.11 mg/kg/injection, schedule: Q01DX009 (ip), vehicle: saline + alcohol 91 % of control

Cc1cc(-c2ccc(N=Nc3ccc4c(S(=O)(=O)O)cc(S(=O)(=O)O)c(N)c4c3O)c(C)c2)ccc1N=Nc1ccc2c(S(=O)(=O)O)cc(S(=O)(=O)O)c(N)c2c1O
inactive: dose: 12.5 mg/kg/injection, schedule: Q01DX009 (ip), vehicle: saline 121 % of control

CN1CCC(=C2c3ccccc3C=Cc3ccccc32)CC1
inactive: dose: 3.12 mg/kg/injection, schedule: Q01DX009 (ip), vehicle: saline 110 % of control | dose: 6.25 mg/kg/injection, schedule: Q01DX009 (ip), vehicle: saline 102 % of control | [11] 105 % of control | [1] 105 % of control

CCOC(=O)C1=C(O)c2c(sc(C)c2C)N(S(=O)(=O)c2ccc(C)cc2)CC1
inactive: dose: 12.5 mg/kg/injection, schedule: Q04DX003 (ip), vehicle: saline with Tween-80 116 % of control | dose: 25.0 mg/kg/injection, schedule: Q04DX003 (ip), vehicle: saline with Tween-80 113 % of control | dose: 50.0 mg/kg/injection, schedule: Q04DX003 (ip), vehicle: saline with Tween-80 111 % of control | dose: 100.0 mg/kg/injection, schedule: Q04DX003 (ip), vehicle: saline with Tween-80 111 % of control | dose: 200.0 mg/kg/injection, schedule: Q04DX003 (ip), vehicle: saline with Tween-80 108 % of control

CC(=O)Oc1cc(-c2c(C)cc(C)cc2C)c(OC(C)=O)cc1C
inactive: dose: 100.0 mg/kg/injection, schedule: Q04DX003 (ip), vehicle: Klucel (hydroxypropylcellulose) (HPC) 93 % of control | dose: 200.0 mg/kg/injection, schedule: Q04DX003 (ip), vehicle: Klucel (hydroxypropylcellulose) (HPC) 91 % of control | dose: 400.0 mg/kg/injection, schedule: Q04DX003 (ip), vehicle: Klucel (hydroxypropylcellulose) (HPC) 97 % of control

Cc1ccc(/C=N\N=C\c2ccc(C)cc2)cc1
inactive: [6] 100 % of control | [7] 88 % of control

CCC(=O)NCC1(c2ccccc2)CCN(CC2COc3ccccc3O2)CC1 (stereo unspecified)
inactive: dose: 25.0 mg/kg/injection, schedule: Q04DX003 (ip), vehicle: saline 116 % of control | dose: 50.0 mg/kg/injection, schedule: Q04DX003 (ip), vehicle: saline 107 % of control | dose: 100.0 mg/kg/injection, schedule: Q04DX003 (ip), vehicle: saline 105 % of control

C/C(=N\NC(N)=O)C1=C(O)C(C(C)C)NC1=O (stereo unspecified)
inactive: [6] 91 % of control | [7] 86 % of control | [9] 91 % of control | [10] 91 % of control

Nc1nc(=S)c2ncn(C3OC(CO)C(O)C3O)c2[nH]1 (stereo unspecified)
inactive: dose: 0.5 mg/kg/injection, schedule: Q01DX009 (ip), vehicle: saline with Tween-80 109 % of control | dose: 1.0 mg/kg/injection, schedule: Q01DX009 (ip), vehicle: saline sonified 106 % of control | dose: 1.0 mg/kg/injection, schedule: Q01DX009 (ip), vehicle: saline with Tween-80 122 % of control | dose: 2.0 mg/kg/injection, schedule: Q01DX009 (ip), vehicle: saline sonified 102 % of control | [8] 113 % of control

O=C1C(=O)c2ccccc2C(O)=C1CCCc1ccc(OCc2ccccc2)cc1
inactive: dose: 5.0 mg/kg/injection, schedule: Q01DX009 (ip), vehicle: saline with Tween-80 101 % of control | dose: 10.0 mg/kg/injection, schedule: Q01DX009 (ip), vehicle: saline with Tween-80 100 % of control | dose: 20.0 mg/kg/injection, schedule: Q01DX009 (ip), vehicle: saline with Tween-80 103 % of control
